Where a SMILES comes first, the peptide text is derived from it. Bridges are numbered along the chain shown (N, C = ends).

Results on nine compounds are retold here after patent US5306808A, “Peptide derivatives having vasodilating activity” (Takeda Chemical Industries, Ltd., priority 1991, dated 1994).

For experiment [1], the system named is porcine coronary artery. The experiment is classed as cell-based. Conditions: for Constrictor activity (Relative potency): ET-1 = 100; for Maximum Constriction (% 60 mM KCl): normalized to constriction response to 60 mM KCl. The protocol:
Each of helical strips 2 mm×15 mm prepared from the coronary right ramus circumflexus from which the adventitial connective tissues and the endothelial cells were removed was set to each of 4 ml organ baths. Its tension was detected by a force displacement transducer UL-10GR (Minebea), and recorded by a polygraph (NEC Sanei). The organ baths were maintained at 37° C., and filled with a Krebs-Henseleit solution (composition:118 mM NaCl, 4.7 mM KCl, 2.5 mM CaCl2, 1.2 mM KH2 PO4, 25.0 mM NaHCO3, 1.2 mM MgSO4, 10.0 mM glucose) gassed with 95% O2 and 5% CO2.
A tension of 1.25 to 1.5 g was applied to each of the strips, followed by equilibration for 1.5 hours. 60 mM KCl was repeatedly applied thereto at intervals of 30 minutes until the constriction response became constant. After additional equilibration for 1.5 hours, a sample for assay was given. The constriction of the strips was normalized by the constriction response of the individual strips to 60 mM KCl and statistically processed.
(2) As to the antagonist property or the agonist property of the peptide derivatives of present invention to endothelin, the affinity for an endothelin receptor and the constrictor activity to porcine coronary smooth muscles (according to the method described in (1) described above) were assayed. The affinity for the receptor was assayed by the following method.

Experiment [2] relates to endothelin receptor. In words: Assay of affinity for receptor (I125-ET-1 binding to porcine myocardial membrane fraction). Conditions: ET-1 = 100. The protocol:
A membrane fraction prepared from the porcine heart was diluted to 0.15 mg/ml by using a buffer solution [PBS (pH 7.4) containing 0.5 mM CaCl2, 1.0 mM MgCl2, 0.02% NaN3, 0.1% BSA (fraction V, Sigma), 0.1 mM PMSF and 0.1 μg/ml pepstatin (binding buffer)] for assay, and 100 μl of the resulting suspension of the membrane fraction was poured into each assay tube to use for assay. To this suspension of the membrane fraction were added 2 μl of an endothelin-1 solution labeled with 5 μM radioactive iodine. Further, 3 μl of a test peptide solution was added thereto, followed by maintenance at a temperature of 25° C. for 1 hour. Then, the resulting suspension was diluted with 900 μl of the buffer solution for assay cooled with ice, and thereafter separated into a supernatant and a precipitate by centrifugation at 12,000×g for 10 minutes. Cell membranes and an endothelin receptor embedded therein were contained in the precipitate, and radioactive iodine-labeled endothelin combined with the receptor was also recovered in the precipitate. Accordingly, the amount of radioactive iodine-labeled endothelin combined with the endothelin receptor was determined by measuring the amount of radioactive iodine contained in the precipitate with a gamma-ray counter. Compounds in which the affinity for the endothelin receptor is high and the maximum constriction is not high are antagonists. Contrary to this, compounds in which the affinity for the endothelin receptor is high and the maximum constriction is high are agonists.

As for `CC[C@H](C)[C@H](NC(=O)[C@H](CC(=O)O)NC(=O)[C@H](CC(C)C)NC(=O)[C@H](Cc1c[nH]cn1)NC(=O)[C@@H]1CSSC[C@H](N)C(=O)N[C@@H](CO)C(=O)N[C@H]2CSSC[C@H](NC(=O)[C@H](CCC(=O)O)NC(=O)[C@H](CCCCN)NC(=O)[C@H](CC(=O)O)NC(=O)[C@H](CCSC)NC(=O)[C@H](CC(C)C)NC(=O)[C@H](CO)NC(=O)[C@H](CO)NC2=O)C(=O)N[C@@H](C(C)C)C(=O)N[C@@H](Cc2ccc(O)cc2)C(=O)N[C@@H](Cc2ccccc2)C(=O)N1)C(=O)N[C@H](C(=O)N[C@@H](Cc1c[nH]c2ccccc12)C(=O)O)[C@@H](C)CC` [ET-1, endothelin-1, reference compound], the EC50 in experiment [1] (read-out: EC50 (% KCL), concentration which induces 50% of the constriction due to 60 mM KCl) turned out to be 1.6 nM.

`CC[C@H](C)[C@H](NC(=O)[C@H](CC(=O)O)NC(=O)[C@H](CC(C)C)NC(=O)[C@H](Cc1c[nH]cn1)NC(=O)[C@@H]1CSSC[C@H](N)C(=O)N[C@@H](CO)C(=O)N[C@@H](Cc2c[nH]c3ccccc23)C(=O)N[C@@H](CO)C(=O)N[C@@H](CO)C(=O)N[C@@H](CC(C)C)C(=O)N[C@@H](CCSC)C(=O)N[C@@H](CC(=O)O)C(=O)N[C@@H](CCCCN)C(=O)N[C@@H](CCC(=O)O)C(=O)N[C@@H](C)C(=O)N[C@@H](C(C)C)C(=O)N[C@@H](Cc2ccc(O)cc2)C(=O)N[C@@H](Cc2ccccc2)C(=O)N1)C(=O)N[C@H](C(=O)N[C@@H](Cc1c[nH]c2ccccc12)C(=O)O)[C@@H](C)CC` [Example 13, [Trp^3, Ala^11]-ET-1] (H-CSWSSLMDKEAVYFCHLDIIW-OH; disulfide 1-15): in experiment [1], the “Constrictor activity (Relative potency)” value is < 0.1 and the “Maximum Constriction (% 60 mM KCl)” value turned out to be 6 % 60 mM KCl. Besides, in experiment [2], the “Receptor binding activity (Relative potency)” value stood at 2.5.

For the compound `CC[C@H](C)[C@H](NC(=O)[C@H](C)NC(=O)[C@H](CC(C)C)NC(=O)[C@H](Cc1c[nH]cn1)NC(=O)[C@@H]1CSSC[C@H](N)C(=O)N[C@@H](CO)C(=O)N[C@@H](C)C(=O)N[C@@H](CO)C(=O)N[C@@H](CO)C(=O)N[C@@H](CC(C)C)C(=O)N[C@@H](CCSC)C(=O)N[C@@H](CC(=O)O)C(=O)N[C@@H](CCCCN)C(=O)N[C@@H](CCC(=O)O)C(=O)N[C@@H](C)C(=O)N[C@@H](C(C)C)C(=O)N[C@@H](Cc2ccc(O)cc2)C(=O)N[C@@H](Cc2ccccc2)C(=O)N1)C(=O)N[C@H](C(=O)N[C@@H](Cc1c[nH]c2ccccc12)C(=O)O)[C@@H](C)CC` [Example 21, [Ala^3,11,18]-ET-1] (H-CSASSLMDKEAVYFCHLAIIW-OH; disulfide 1-15), in experiment [1], the “Constrictor activity (Relative potency)” value is < 0.1 and the “Maximum Constriction (% 60 mM KCl)” value is given as 6 % 60 mM KCl. Further, the “Receptor binding activity (Relative potency)” value in experiment [2] is recorded as 1.59.

`CC[C@H](C)[C@H](NC(=O)[C@H](CC(C)C)NC(=O)[C@H](CC(C)C)NC(=O)[C@H](Cc1c[nH]cn1)NC(=O)[C@@H]1CSSC[C@H](N)C(=O)N[C@@H](CO)C(=O)N[C@@H](C)C(=O)N[C@@H](CO)C(=O)N[C@@H](CO)C(=O)N[C@@H](CC(C)C)C(=O)N[C@@H](CCSC)C(=O)N[C@@H](CC(=O)O)C(=O)N[C@@H](CCCCN)C(=O)N[C@@H](CCC(=O)O)C(=O)N[C@@H](C)C(=O)N[C@@H](C(C)C)C(=O)N[C@@H](Cc2ccc(O)cc2)C(=O)N[C@@H](Cc2ccccc2)C(=O)N1)C(=O)N[C@H](C(=O)N[C@@H](Cc1c[nH]c2ccccc12)C(=O)O)[C@@H](C)CC` [Example 22, [Ala^3,11, Leu^18]-ET-1] (H-CSASSLMDKEAVYFCHLLIIW-OH; disulfide 1-15): in experiment [1], the “Constrictor activity (Relative potency)” value is < 0.1 and the “Maximum Constriction (% 60 mM KCl)” value amounted to 3 % 60 mM KCl. Besides, the “Receptor binding activity (Relative potency)” value in experiment [2] amounted to 1.27.

Consider `CC[C@H](C)[C@H](NC(=O)[C@H](Cc1ccccc1)NC(=O)[C@H](CC(C)C)NC(=O)[C@H](Cc1c[nH]cn1)NC(=O)[C@@H]1CSSC[C@H](N)C(=O)N[C@@H](CO)C(=O)N[C@@H](C)C(=O)N[C@@H](CO)C(=O)N[C@@H](CO)C(=O)N[C@@H](CC(C)C)C(=O)N[C@@H](CCSC)C(=O)N[C@@H](CC(=O)O)C(=O)N[C@@H](CCCCN)C(=O)N[C@@H](CCC(=O)O)C(=O)N[C@@H](C)C(=O)N[C@@H](C(C)C)C(=O)N[C@@H](Cc2ccc(O)cc2)C(=O)N[C@@H](Cc2ccccc2)C(=O)N1)C(=O)N[C@H](C(=O)N[C@@H](Cc1c[nH]c2ccccc12)C(=O)O)[C@@H](C)CC` [Example 23, [Ala^3,11, Phe^18]-ET-1] (H-CSASSLMDKEAVYFCHLFIIW-OH; disulfide 1-15), for which, in experiment [1], the “Constrictor activity (Relative potency)” value was < 0.1 and the “Maximum Constriction (% 60 mM KCl)” value is 8 % 60 mM KCl. Besides, in experiment [2], the “Receptor binding activity (Relative potency)” value was 1.27.

In the case of `CC[C@H](C)[C@H](NC(=O)[C@H](C)NC(=O)[C@H](CC(C)C)NC(=O)[C@H](Cc1c[nH]cn1)NC(=O)[C@@H]1CSSC[C@H](N)C(=O)N[C@@H](CO)C(=O)N[C@H]2CSSC[C@H](NC(=O)[C@H](CCC(=O)O)NC(=O)[C@H](CCCCN)NC(=O)[C@H](CC(=O)O)NC(=O)[C@H](CCSC)NC(=O)[C@H](CC(C)C)NC(=O)[C@H](CO)NC(=O)[C@H](CO)NC2=O)C(=O)N[C@@H](C(C)C)C(=O)N[C@@H](Cc2ccc(O)cc2)C(=O)N[C@@H](Cc2ccccc2)C(=O)N1)C(=O)N[C@H](C(=O)N[C@@H](Cc1c[nH]c2ccccc12)C(=O)O)[C@@H](C)CC` [Example 25, [Ala^18]-ET-1] (H-CSCSSLMDKECVYFCHLAIIW-OH; disulfide 1-15, 3-11), in experiment [1], the “Constrictor activity (Relative potency)” value is listed as 7.8 and the “Maximum Constriction (% 60 mM KCl)” value was 62 % 60 mM KCl. Moreover, the “Receptor binding activity (Relative potency)” value in experiment [2] amounted to 9.1.

Take `CC[C@H](C)[C@H](NC(=O)[C@H](CC(C)C)NC(=O)[C@H](CC(C)C)NC(=O)[C@H](Cc1c[nH]cn1)NC(=O)[C@@H]1CSSC[C@H](N)C(=O)N[C@@H](CO)C(=O)N[C@H]2CSSC[C@H](NC(=O)[C@H](CCC(=O)O)NC(=O)[C@H](CCCCN)NC(=O)[C@H](CC(=O)O)NC(=O)[C@H](CCSC)NC(=O)[C@H](CC(C)C)NC(=O)[C@H](CO)NC(=O)[C@H](CO)NC2=O)C(=O)N[C@@H](C(C)C)C(=O)N[C@@H](Cc2ccc(O)cc2)C(=O)N[C@@H](Cc2ccccc2)C(=O)N1)C(=O)N[C@H](C(=O)N[C@@H](Cc1c[nH]c2ccccc12)C(=O)O)[C@@H](C)CC` [Example 26, [Leu^18]-ET-1] (H-CSCSSLMDKECVYFCHLLIIW-OH; disulfide 1-15, 3-11): in experiment [1], the “Constrictor activity (Relative potency)” value is given as < 0.1 and the “Maximum Constriction (% 60 mM KCl)” value is recorded as 0 % 60 mM KCl. The “Receptor binding activity (Relative potency)” value in experiment [2] worked out at 2.4.

Turning to `CC[C@H](C)[C@H](NC(=O)[C@@H](NC(=O)[C@H](CC(C)C)NC(=O)[C@H](Cc1c[nH]cn1)NC(=O)[C@@H]1CSSC[C@H](N)C(=O)N[C@@H](CO)C(=O)N[C@H]2CSSC[C@H](NC(=O)[C@H](CCC(=O)O)NC(=O)[C@H](CCCCN)NC(=O)[C@H](CC(=O)O)NC(=O)[C@H](CCSC)NC(=O)[C@H](CC(C)C)NC(=O)[C@H](CO)NC(=O)[C@H](CO)NC2=O)C(=O)N[C@@H](C(C)C)C(=O)N[C@@H](Cc2ccc(O)cc2)C(=O)N[C@@H](Cc2ccccc2)C(=O)N1)C(C)C)C(=O)N[C@H](C(=O)N[C@@H](Cc1c[nH]c2ccccc12)C(=O)O)[C@@H](C)CC` [Example 27, [Val^18]-ET-1] (H-CSCSSLMDKECVYFCHLVIIW-OH; disulfide 1-15, 3-11), in experiment [1], the “Constrictor activity (Relative potency)” value is listed as < 0.1 and the “Maximum Constriction (% 60 mM KCl)” value stood at 2 % 60 mM KCl. Besides, the “Receptor binding activity (Relative potency)” value in experiment [2] is on record as 3.2.

As for `CC[C@H](C)[C@H](NC(=O)CNC(=O)[C@H](CC(C)C)NC(=O)[C@H](Cc1c[nH]cn1)NC(=O)[C@@H]1CSSC[C@H](N)C(=O)N[C@@H](CO)C(=O)N[C@H]2CSSC[C@H](NC(=O)[C@H](CCC(=O)O)NC(=O)[C@H](CCCCN)NC(=O)[C@H](CC(=O)O)NC(=O)[C@H](CCSC)NC(=O)[C@H](CC(C)C)NC(=O)[C@H](CO)NC(=O)[C@H](CO)NC2=O)C(=O)N[C@@H](C(C)C)C(=O)N[C@@H](Cc2ccc(O)cc2)C(=O)N[C@@H](Cc2ccccc2)C(=O)N1)C(=O)N[C@H](C(=O)N[C@@H](Cc1c[nH]c2ccccc12)C(=O)O)[C@@H](C)CC` [Example 28, [Gly^18]-ET-1] (H-CSCSSLMDKECVYFCHLGIIW-OH; disulfide 1-15, 3-11), in experiment [1], the “Constrictor activity (Relative potency)” value is on record as 43 and the “Maximum Constriction (% 60 mM KCl)” value came to 99 % 60 mM KCl. For the same compound, in experiment [2], the “Receptor binding activity (Relative potency)” value was found to be 39.8.
